{
  "source": "patent EP2181589A1",
  "about": "“Neurotoxic sterol glycosides” (Shaw, Christopher Ariel, priority 2008, dated 2010)",
  "assay_type_in_all_cases": "in vivo, CD-1 mice",
  "key": {"[1]": {"test_system": "Ionized calcium-binding adaptor molecule-1", "experiment": "IBA-1 immunofluorescence (microglia proliferation)", "conditions": "SG-fed group over time, 35 to 52 wk", "procedure": "(§1) The synthetic SG was mixed with finely ground Purina Chow mouse pellets (Mouse Diet™, Purina) to create the experimental pellets with a SG content of 1000 µg per pellet. Dry materials were blended with a sterile silicon spatula. For every 5 g of standard feed, 2.5 mL of doubly-distilled water (dd)H2O was added and the dough was kneaded and round up into pellets. A single sterol glucoside containing pellet was placed in the feeding tray each morning before the addition of regular mouse chow (ad libitum). All experimental pellets were entirely consumed by the mice each day. Control mice were fed standard mouse chow pellets of identical weight with no additives. SG feeding was conducted daily for 15 weeks and mice were behaviorally monitored until sacrifice at 35 weeks (time point 1) or 52 weeks (time point 2).\n(§2) Tissue-mounted slides were processed for fluorescence microscopy as follows: Sections were rinsed in coplin jars for 45 minutes at room temperature (RT) in three changes of PBS. Sections were then incubated at RT for 30 minutes in a blocking permeabilization solution made of 5% normal goat serum (NGS), 5% normal rabbit serum (NRS) or 5% BlokHen II (Aves Labs, Inc., Tigard, OR), 0.05% Triton X-100 and PBS. Subsequently, the blocking solution was tipped off and the slides were rinsed in PBS for 2 minutes. […]"}, "Phosphorylated Junser73": {"test_system": "Phosphorylated Junser73", "experiment": "Phosphorylated Jun ser73 immunofluorescence", "conditions": "for Anti-pJun: SG-fed vs control", "procedure": "as §1, §2"}, "[2]": {"test_system": "Motor Neurons per lumbar cord section", "experiment": "Motor neuron counts, cresyl violet (Nissl) histology", "procedure": "as §1\nMice were sacrificed for histological analysis at 35 weeks (35.9-48.6 g) and 52 weeks (41.2-51.4 g) of age. Age-matched control mice from each time point were included for comparison. The mice were deeply anaesthetized in a chamber with 4% isoflurane and perfused intracardially with filtered PBS (pH 7.4) until the effluent was cleared of blood (2 minutes), followed by perfusion with cold (4°C) 4% paraformaldehyde (PFA) in 0.1 M phosphate buffer (pH 7.4) for 5 minutes (30 mL). The PBS and the PFA were delivered through separate sterile platinum-cured silicon tubing (Cole-Parmer Canada Inc., Montreal, Canada) and peristaltic pumps (MasterFlex peristaltic pump, Cole-Parmer Canada Inc., Montreal, Canada). The brains and spinal cords were dissected out and fixed overnight at 4°C and equilibrated in increasing concentrations of sucrose in phosphate-buffered saline, pH 7.4 (10, 20, and 25%) over a 3-day period. Complete equilibration of the tissues was taken as the moment the tissues sank to the bottom of the scintillation tubes filled with 25% sucrose. After equilibration, the spinal cord and brain specimens were set in molds (Tissue-tek Cryomold, Sakura Finetek, USA, Torrance, CA) with an optimum cutting temperature (OCT) gel-sucrose mixture frozen by immersion in an isopentane (BDH Laboratory Supplies, UK) bath on dry ice and stored at -80°C until processing.\nCryosectioning of tissue: Frozen, coronal sections (spinal cord: 20 µm, brain: 30 µm) were cut with a Hacker-Bright cryostat (Hacker Instruments and Industries Inc., Winnsboro, SC) and mounted on charged glass slides (Superfrost Plus; Fisher Scientific, Pittsburgh, PA) so that adjacent CNS sections on each slide represented regions 100 µm and 150 µm apart for spinal cord and brain, respectively ((Tabata, Wilson et al. 2008)). The slides were stored at -80°C until histological processing. To ensure CNS sections were matched between animals, anatomical landmarks were verified using a mouse brain atlas (Paxinos and Franklin 2001).\nHistology and quantification of motor neurons: Spinal cord and brain sections from each animal were stained for Nissl body substance. At room temperature (RT), sections were rinsed in a graded ethanol series (95%: 15 min; 70%: 1 min; 50%: 1 min) to rehydrate and remove lipids and fixation chemicals from the tissue. The tissue were then rinsed for 2 min in two exchanges of distilled water, stained with twice-filtered cresyl violet stain (1.25 g cresyl violet acetate, 0.75 mL glacial acetic acid to 250 mL distilled water), rinsed in distilled water (1 minute), and then dehydrated (50% ethanol: 1 minute; 1% glacial acetic acid-70% ethanol: 2 minutes; 95% ethanol: 2 minutes; 95% ethanol: 3 dips; 100% ethanol: 1 minute) and cleared in xylene. The slides were then cover-slipped in Entellen mountant (Merck, Darmstadt, Germany). The tissue mounted slides were selected with a randomized start and sampled starting from the lumbar 2 region to the 6th. […]"}, "[3]": {"conditions": "SG-fed vs control, time-point 1, 35 wk"}, "[4]": {"conditions": "SG-fed vs control, time-point 2, 52 wk"}, "[5]": {"conditions": "SG-group over time, 35 to 52 wk"}},
  "note": "Marks after values point to notes of the source that are not given here.",
  "data": [
    {"compound": "CCC(C=CC(C)C1CCC2C3CC=C4CC(OC5OC(CO)C(O)C(O)C5O)CCC4(C)C3CCC12C)C(C)C", "note": "(stereo not drawn) [SG]", "values": [
      {"measurement": "Anti-IBA-1 immunoreactive cells", "setting": "[1]", "result": "Anti-IBA-1 immunoreactive cells (SG-fed group over time) (ns)"},
      {"measurement": "Anti-pJun immunoreactive cells", "setting": "Phosphorylated Junser73; SG-fed group over time, 35 to 52 wk", "result": "Anti-pJun immunoreactive cells (SG-fed group over time) (ns)"},
      {"measurement": "Anti-pJun", "setting": "Phosphorylated Junser73; time-point 1, 35 wk", "result": "Anti-pJun: +199%*"},
      {"measurement": "Anti-pJun", "setting": "Phosphorylated Junser73; time-point 2, 52 wk", "result": "Anti-pJun (ns)"},
      {"measurement": "Chromatolytic α-MN", "setting": "[2]; [3]", "result": "Chromatolytic α-MN (ns)"},
      {"measurement": "Healthy α-MN", "setting": "[2]; [3]", "result": "Healthy α-MN (ns)"},
      {"measurement": "Pyknotic α-MN", "setting": "[2]; [3]", "result": "Pyknotic α-MN (ns)"},
      {"measurement": "Total γ-MN", "setting": "[2]; [3]", "result": "Total γ-MN (ns)"},
      {"measurement": "Chromatolytic α-MN", "setting": "[2]; [4]", "result": "Chromatolytic α-MN (ns)"},
      {"measurement": "Pyknotic α-MN", "setting": "[2]; [4]", "result": "Pyknotic α-MN (ns)"},
      {"measurement": "Total γ-MN", "setting": "[2]; [4]", "result": "Total γ-MN (ns)"},
      {"measurement": "Total α-MN", "setting": "[2]; SG-fed vs control, time-point 2, 52 wk, table cell prints no unit", "result": "Total α-MN: -47*"},
      {"measurement": "Chromatolytic α-MN", "setting": "[2]; [5]", "result": "(control group & SG-group independently over time) (ns)"},
      {"measurement": "Pyknotic α-MN", "setting": "[2]; [5]", "result": "(control group and SG-group independently over time) (ns)"},
      {"measurement": "Total γ-MN", "setting": "[2]; [5]", "result": "(control group and SG-group independently over time) (ns)"}
    ]}
  ]
}
